# Reference: ChEMBL document CHEMBL3734719, “Discovery of highly potent triazoleantifungal agents with piperidine-oxadiazole side chains” (2015)
# Active and inactive are the calls of the source. No cut-off for these calls is given here.
# Legend:
# Candida albicans [1] = assay: Antifungal activity against Candida albicans after 48 hrs by spectrophotometry; type: functional
# Candida parapsilosis = assay: Antifungal activity against Candida parapsilosis after 48 hrs by spectrophotometry; type: functional; conditions: Lodderomyces parapsilosis
# Cryptococcus neoformans = assay: Antifungal activity against Cryptococcus neoformans after 48 hrs by spectrophotometry; type: functional
# Nakaseomyces glabratus = assay: Antifungal activity against Candida glabrata after 48 hrs by spectrophotometry; type: functional
# Aspergillus fumigatus = assay: Antifungal activity against Aspergillus fumigatus after 48 hrs by spectrophotometry; type: functional
# Trichophyton rubrum = assay: Antifungal activity against Trichophyton rubrum after 48 hrs by spectrophotometry; type: functional
# Nannizzia gypsea = assay: Antifungal activity against Microsporum gypseum after 48 hrs by spectrophotometry; type: functional
# Candida albicans [2] = assay: Antifungal activity against Candida albicans SC5314 assessed as inhibition of yeast to hypha transisition at >1 ug/ml after 3 hrs measured as increase in yeast cells; type: functional, organism-based
# Candida albicans [3] = assay: Antifungal activity against Candida albicans SC5314 assessed as inhibition of yeast to hypha transisition at >1 ug/ml after 3 hrs measured as increase in pseudohyphal cells; type: functional, organism-based
# Caenorhabditis elegans = assay: Growth inhibition of Caenorhabditis elegans at 1 to 160 ug/ml after 6 days; type: functional, organism-based
# Candida albicans [4] = assay: Antifungal activity against Candida albicans after 48 hrs by spectrophotometry relative to fluconazole; type: functional
# Candida albicans [5] = assay: Antifungal activity against fluconazole-resistant Candida albicans 103 after 48 hrs by spectrophotometry; type: functional; conditions: Candida albicans, 103, 48 h
# Candida albicans [6] = assay: Antifungal activity against fluconazole-resistant Candida albicans 805 after 48 hrs by spectrophotometry; type: functional; conditions: Candida albicans, 805, 48 h
# Candida albicans [7] = assay: Antifungal activity against fluconazole-resistant Candida albicans 0710922 after 48 hrs by spectrophotometry; type: functional; conditions: Candida albicans, 0710922, 48 h
# Candida albicans [8] = assay: Antifungal activity against Candida albicans SC5314 assessed as inhibition of yeast to hypha transisition at >1 ug/ml after 3 hrs measured as decrease in hyphae; type: functional, organism-based
MIC80 (Candida albicans [1]),MIC80 (Candida parapsilosis),MIC80 (Cryptococcus neoformans),MIC80 (Nakaseomyces glabratus),MIC80 (Aspergillus fumigatus),MIC80 (Trichophyton rubrum),MIC80 (Nannizzia gypsea),SMILES,inhibition (Candida albicans [2]),inhibition (Candida albicans [3]),inhibition (Caenorhabditis elegans),Ratio (Candida albicans [4]),MIC50 (Candida albicans [5]),MIC80 (Candida albicans [5]),MIC50 (Candida albicans [6]),MIC80 (Candida albicans [6]),MIC50 (Candida albicans [7]),MIC80 (Candida albicans [7]),inhibition (Candida albicans [8])
1 µg/mL,8 µg/mL,4 µg/mL,8 µg/mL,8 µg/mL,4 µg/mL,8 µg/mL,OC(CN1CCC(c2nnc(-c3cccc4ccccc34)o2)CC1)(Cn1cncn1)c1ccc(F)cc1F (stereo not drawn),,,,,,,,,,,
2 µg/mL,16 µg/mL,4 µg/mL,16 µg/mL,16 µg/mL,32 µg/mL,4 µg/mL,OC(CN1CCC(c2nnc(-c3ccncc3)o2)CC1)(Cn1cncn1)c1ccc(F)cc1F (stereo not drawn),,,,,,,,,,,
0.25 µg/mL,2 µg/mL,1 µg/mL,4 µg/mL,4 µg/mL,2 µg/mL,2 µg/mL,O=[N+]([O-])c1ccc(-c2nnc(C3CCN(CC(O)(Cn4cncn4)c4ccc(F)cc4F)CC3)o2)cc1 (stereo not drawn),,,,,,,,,,,
0.5 µg/mL,2 µg/mL,1 µg/mL,2 µg/mL,2 µg/mL,4 µg/mL,1 µg/mL,OC(CN1CCC(c2nc(-c3ccc(F)cc3)no2)CC1)(Cn1cncn1)c1ccc(F)cc1F (stereo not drawn),,,,,,,,,,,
0.125 µg/mL,1 µg/mL,0.5 µg/mL,4 µg/mL,4 µg/mL,4 µg/mL,4 µg/mL,OC(CN1CCC(c2nnc(-c3cccnc3)o2)CC1)(Cn1cncn1)c1ccc(F)cc1F (stereo not drawn),,,,,,,,,,,
0.125 µg/mL,0.5 µg/mL,≤ 0.125 µg/mL,1 µg/mL,1 µg/mL,2 µg/mL,2 µg/mL,OC(CN1CCC(c2nnc(-c3ccccc3F)o2)CC1)(Cn1cncn1)c1ccc(F)cc1F (stereo not drawn),,,,,,,,,,,
0.063 µg/mL,0.5 µg/mL,≤ 0.125 µg/mL,1 µg/mL,1 µg/mL,2 µg/mL,2 µg/mL,OC(CN1CCC(c2nnc(-c3ccc(F)cc3)o2)CC1)(Cn1cncn1)c1ccc(F)cc1F (stereo not drawn),,,,,,,,,,,
1 µg/mL,4 µg/mL,2 µg/mL,4 µg/mL,4 µg/mL,4 µg/mL,4 µg/mL,COc1cccc(-c2noc(C3CCN(CC(O)(Cn4cncn4)c4ccc(F)cc4F)CC3)n2)c1 (stereo not drawn),,,,,,,,,,,
0.063 µg/mL,1 µg/mL,0.5 µg/mL,2 µg/mL,2 µg/mL,1 µg/mL,1 µg/mL,COc1ccc(-c2nnc(C3CCN(CC(O)(Cn4cncn4)c4ccc(F)cc4F)CC3)o2)cc1 (stereo not drawn),,,,,,,,,,,
0.063 µg/mL,1 µg/mL,0.5 µg/mL,1 µg/mL,1 µg/mL,2 µg/mL,2 µg/mL,OC(CN1CCC(c2nc(-c3ccco3)no2)CC1)(Cn1cncn1)c1ccc(F)cc1F (stereo not drawn),,,,,,,,,,,
0.125 µg/mL,0.5 µg/mL,≤ 0.125 µg/mL,0.5 µg/mL,0.5 µg/mL,2 µg/mL,4 µg/mL,OC(CN1CCC(c2nnc(-c3ccco3)o2)CC1)(Cn1cncn1)c1ccc(F)cc1F (stereo not drawn),,,,,,,,,,,

SMILES,MIC80 (Candida albicans [1]),MIC80 (Candida parapsilosis),MIC80 (Cryptococcus neoformans),MIC80 (Nakaseomyces glabratus),MIC80 (Aspergillus fumigatus),MIC80 (Trichophyton rubrum),MIC80 (Nannizzia gypsea),inhibition (Candida albicans [2]),inhibition (Candida albicans [3]),inhibition (Caenorhabditis elegans),Ratio (Candida albicans [4]),MIC50 (Candida albicans [5]),MIC80 (Candida albicans [5]),MIC50 (Candida albicans [6]),MIC80 (Candida albicans [6]),MIC50 (Candida albicans [7]),MIC80 (Candida albicans [7]),inhibition (Candida albicans [8])
OC(CN1CCC(c2nnc(-c3ccc(C(F)(F)F)cc3)o2)CC1)(Cn1cncn1)c1ccc(F)cc1F (stereo not drawn),0.031 µg/mL,0.5 µg/mL,0.25 µg/mL,2 µg/mL,2 µg/mL,1 µg/mL,1 µg/mL,Active,Active,inactive,8,0.25 µg/mL,8 µg/mL,0.0625 µg/mL,16 µg/mL,0.125 µg/mL,16 µg/mL,Active
COc1ccc(-c2noc(C3CCN(CC(O)(Cn4cncn4)c4ccc(F)cc4F)CC3)n2)cc1 (stereo not drawn),0.016 µg/mL,0.25 µg/mL,0.25 µg/mL,1 µg/mL,1 µg/mL,0.5 µg/mL,2 µg/mL,Active,Active,inactive,8,0.25 µg/mL,4 µg/mL,0.125 µg/mL,8 µg/mL,0.125 µg/mL,16 µg/mL,Active
